Test results: patent US5288709A, “Erythromycin derivatives” (priority 1991, dated 1994)
Converted amounts (≈) assume the structure as drawn. Where two headings read alike, the source gives them in different places.

How the values were obtained:
[1] = tested on: Staphylococcus aureus (NCTC 10649); test: In-vivo acute mouse protection assay; set-up: species or system Staphylococcus aureus; female Swiss albino mice; conditions: Staphylococcus aureus, dosed 1 and 5 h post-infection, observed 7 days, read-out: ED50
Protocol: (§1) An acute mouse protection test was conducted on ten mice with each of three concentrations of selected compounds of the invention. Each concentration was a four-fold dilution of the previous concentration. The initial concentration will vary with the microorganism with which the mouse is challenged.
(§2) The acute mouse protection test was conducted on female, Swiss albino mice, 18-20 grams in weight. […] To check the potency of the inoculum, a titration of the indicated test organism was carried out in control animals. The titration determines the LD50 for a particular microorganism. The treatment groups of animals were dosed orally, by gavage, or subcutaneously with the test compounds at 1 and 5 hours post-infection and observed for 7 days. The ED50 were calculated using the mortality data collected.

[2] = tested on: Pseudomonas aeruginosa K799/WT; test: In-vitro antimicrobial activity primary screen (agar dilution MIC); format: cell-based; conditions: Pseudomonas aeruginosa K799/WT; BHI agar, 20-24 h; read-out: MIC
How it was run: (§3)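 Plates: BHI agar + serial aqueous compound dilutions (12). Inoculum: 1:100; 1:10 for Streptococcus/slow growers. Incubation: 35-37° C, 20-24 h. Readout: lowest concentration without growth beyond faint haze or scattered colonies.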

Escherichia coli SS = test: as above; format: cell-based; conditions: BHI agar, 20-24 h, read-out: MIC
How it was run: as §3

[3] = tested on: Staphylococcus aureus 45 RAR2; test: as above; format: cell-based; conditions: Staphylococcus aureus, 45RAR2, 24 h, BHI agar, 20-24 h
How it was run: as §3

[4] = tested on: Streptococcus bovis A5169; test: as above; format: cell-based; conditions: Streptococcus equinus, BHI agar, 20-24 h, read-out: MIC
How it was run: as §3

[5] = tested on: Streptococcus agalactiae CMX 508; test: as above; format: cell-based; conditions: CMX508, BHI agar, 20-24 h, read-out: MIC
How it was run: as §3

[6] = tested on: Pseudomonas aeruginosa A5007; test: as above; format: cell-based; conditions: Pseudomonas aeruginosa A5007; BHI agar, 20-24 h; read-out: MIC
How it was run: as §3

[7] = tested on: Staphylococcus epidermidis 3519; test: as above; format: cell-based; conditions: BHI agar, 20-24 h, read-out: MIC
How it was run: as §3

[8] = tested on: Streptococcus pyrogenes EES61; test: as above; format: cell-based; conditions: BHI agar, 20-24 h, read-out: MIC
How it was run: as §3

Escherichia coli JUHL = test: as above; format: cell-based; conditions: Escherichia coli JUHL; BHI agar, 20-24 h; read-out: MIC
How it was run: as §3

Staphylococcus aureus 45 = test: as above; format: cell-based; conditions: BHI agar, 20-24 h, read-out: MIC
How it was run: as §3

[9] = tested on: Streptococcus pyrogenes 2548 INDUC; test: as above; format: cell-based; conditions: Streptococcus, 2548INDUC, 24 h, BHI agar, 20-24 h
How it was run: as §3

[10] = tested on: Pseudomonas aeruginosa K799/61; test: as above; format: cell-based; conditions: Pseudomonas aeruginosa K799/61; BHI agar, 20-24 h; read-out: MIC
How it was run: as §3

Escherichia coli DC-2 = test: as above; format: cell-based; conditions: DC2; Escherichia coli DC-2; BHI agar, 20-24 h; read-out: MIC
How it was run: as §3

[11] = tested on: Micrococcus luteus ATCC 9341; test: as above; format: cell-based; conditions: ATCC9341, BHI agar, 20-24 h, read-out: MIC
How it was run: as §3

[12] = tested on: Pseudomonas aeruginosa BMH10; test: as above; format: cell-based; conditions: BHI agar, 20-24 h, read-out: MIC
How it was run: as §3

[13] = tested on: Enterococcus faecium ATCC 8043; test: as above; format: cell-based; conditions: Enterococcus faecium, ATCC8043, 24 h
How it was run: as §3

[14] = tested on: Staphylococcus aureus A5177; test: as above; format: cell-based; conditions: Staphylococcus aureus A5177; BHI agar, 20-24 h; read-out: MIC
How it was run: as §3

[15] = tested on: Enterobacter aerogenes ATCC 13048; test: as above; format: cell-based; conditions: Klebsiella aerogenes, ATCC13048; Enterobacter aerogenes ATCC 13048; BHI agar, 20-24 h; read-out: MIC
How it was run: as §3

Escherichia coli H560 = test: as above; format: cell-based; conditions: Escherichia coli H560; BHI agar, 20-24 h; read-out: MIC
How it was run: as §3

[16] = tested on: Micrococcus luteus ATCC 4698; test: as above; format: cell-based; conditions: Micrococcus luteus, ATCC4698, 24 h, BHI agar, 20-24 h
How it was run: as §3

[17] = tested on: Providencia stuartii CMX 640; test: as above; format: cell-based; conditions: CMX640; Providencia stuartii CMX 640; BHI agar, 20-24 h; read-out: MIC
How it was run: as §3

[18] = tested on: Klebsiella pneumoniae ATCC 8045; test: as above; format: cell-based; conditions: Klebsiella pneumoniae, ATCC8045, 24 h, Klebsiella pneumoniae ATCC 8045; BHI agar, 20-24 h
How it was run: as §3

Acinetobacter SP CMX 669 = test: as above; format: cell-based; conditions: Acinetobacter, SPCMX669, 24 h
How it was run: as §3

[19] = tested on: Staphylococcus aureus ATCC 6538P; test: as above; format: cell-based; conditions: Staphylococcus aureus, ATCC6538P, 24 h, BHI agar, 20-24 h
How it was run: as §3

Pseudomonas cepacia 2961 = test: as above; format: cell-based; conditions: Burkholderia cepacia, BHI agar, 20-24 h, read-out: MIC
How it was run: as §3

[20] = tested on: Haemophilus influenzae (ATCC 43095); test: In-vivo acute mouse protection assay; set-up: species or system Haemophilus influenzae; female Swiss albino mice; conditions: ATCC43095, 168 h, oral, dosed 1 and 5 h post-infection, observed 7 days, read-out: ED50
Protocol: as §1, §2

[21] = tested on: Streptococcus pneumoniae (ATCC 6303); test: In-vivo acute mouse protection assay; set-up: species or system Streptococcus pneumoniae; female Swiss albino mice; conditions: dosed 1 and 5 h post-infection, observed 7 days, read-out: ED50
Protocol: as §1, §2

Compound CC[C@H]1OC(=O)[C@H](C)[C@@H](O[C@H]2C[C@@](C)(OC)[C@@H](O)[C@H](C)O2)[C@H](C)[C@@H](O[C@@H]2O[C@H](C)C[C@H](N(C)C)[C@H]2O)[C@](C)(O)C[C@@H](C)[C@@H]2O[C@@]1(C)[C@@H](N)[C@H]2C [Example 19, (9S,11S)-11-Amino-9-deoxo-11,12-deoxy-9,12-epoxyerythromycin A] has an ED50 ([1]; NCTC10649, 168 h, oral) of 75.4 mg/kg, an ED50 ([1]; NCTC10649, sc, 168 h, subcutaneous) of 20.7 mg/kg and an MIC [2] of 100 mg/L (≈ 139 µM). For the same compound, the MIC (Escherichia coli SS) was 0.78 mg/L (≈ 1.09 µM), the MIC [3] was 0.39 mg/L (≈ 0.544 µM) and the MIC [4] was 0.1 mg/L (≈ 0.139 µM). The MIC [5] was 0.02 mg/L (≈ 0.0279 µM), the MIC [6] was > 100 mg/L and the MIC [7] was 0.2 mg/L (≈ 0.279 µM). The MIC [8] was < 0.005 mg/L, the MIC (Escherichia coli JUHL) was > 100 mg/L and the MIC (Staphylococcus aureus 45) was 0.2 mg/L (≈ 0.279 µM). For the same compound, the MIC [9] was 3.1 mg/L (≈ 4.32 µM), the MIC [10] was 0.78 mg/L (≈ 1.09 µM) and the MIC (Escherichia coli DC-2) was 50 mg/L (≈ 69.7 µM). For the same compound, the MIC [11] was 0.01 mg/L (≈ 0.0139 µM), the MIC [12] was 50 mg/L (≈ 69.7 µM) and the MIC [13] was 0.05 mg/L (≈ 0.0697 µM). The MIC [14] was 0.39 mg/L (≈ 0.544 µM), the MIC [15] was 100 mg/L (≈ 139 µM) and the MIC (Escherichia coli H560) was 6.2 mg/L (≈ 8.65 µM). The MIC [16] was 0.1 mg/L (≈ 0.139 µM), the MIC [17] was > 100 mg/L and the MIC [18] was 25 mg/L (≈ 34.9 µM). For the same compound, the MIC (Acinetobacter SP CMX 669) was 1.56 mg/L (≈ 2.18 µM), the MIC [19] was 0.2 mg/L (≈ 0.279 µM) and the MIC (Pseudomonas cepacia 2961) was > 100 mg/L. For the same compound, the ED50 [20] was 101 mg/kg, the ED50 ([21]; ATCC6303, 168 h, oral) was < 9.4 mg/kg and the ED50 ([21]; ATCC6303, sc, 168 h, subcutaneous) was 1.1 mg/kg.
